According to ChEMBL document CHEMBL3861981 (J Med Chem, 2016):

Assays:
Hepatitis C virus = assay: Antiviral activity against HCV genotype 1b Con1 expressing NS3 protease infected in human Huh7.5 cells assessed as reduction in viral RNA replication by luciferase reporter gene assay; format: functional, cell-based, Hepacivirus hominis; settings: genotype 1b Con1, Huh-7
[1] = Clearance in Beagle dog plasma at 1 mg/kg, iv administered as 5 mins infusion measured up to 24 hrs post dose by LC/MS/MS analysis; format: ADME, organism-based, Canis lupus familiaris
[2] = Cardiotoxicity in rabbit heart assessed as change in heart rate at 10 uM perfused for 20 mins measured for 1 min by electrophysiology method relative to control; format: toxicity, tissue-based, Oryctolagus cuniculus
[3] = Oral bioavailability in cynomolgus monkey plasma at 10 mg/kg administered via gavage measured up to 24 hrs post dose by LC/MS/MS analysis; format: ADME, organism-based, Macaca fascicularis; settings: plasma
[4] = Cardiotoxicity in rabbit heart assessed as change in sinoatrial node recovery time at 10 uM perfused for 20 mins measured for 1 min by electrophysiology method relative to control; format: toxicity, tissue-based, Oryctolagus cuniculus
[5] = Cardiotoxicity in rabbit heart assessed as change in sinoatrial node recovery time at 10 uM perfused for 60 mins measured every 10 mins during perfusion by electrophysiology method relative to control; format: toxicity, tissue-based, Oryctolagus cuniculus; settings: 1 h
[6] = Cytotoxicity against human HEK293T cells assessed as decrease in cell viability
[7] = Cytotoxicity against human MRC5 cells assessed as decrease in cell viability
Salmonella typhimurium = assay: Genotoxicity in Salmonella typhimurium in presence of S9 fraction by Ames test; format: toxicity, organism-based; settings: salmonella enterica subsp. enterica serovar typhimurium
[8] = Toxicity in cynomolgus monkey assessed as gastrointestinal irritation at 10 mg/kg, po administered through gavage; format: organism-based, Macaca fascicularis; settings: in vivo
[9] = Cardiotoxicity in anesthetized rabbit assessed as prolongation of QTcv interval at 30 mg/kg, iv administered as 10 mins infusion by electrophysiology assay; format: toxicity, organism-based, Oryctolagus cuniculus; settings: in vivo
[10] = Cardiotoxicity in dog assessed as effect on QRS interval at 30 to 100 mg/kg administered as single dose by electrophysiology assay; format: toxicity, organism-based, Canis lupus familiaris; settings: in vivo
[11] = Inhibition of recombinant full length HCV genotype 4a ED43 NS3/4A protease preincubated for 30 mins followed by substrate addition measured by FRET assay; design: species or system Hepatitis C virus ED43
Genome polyprotein = Genome polyprotein (GB virus-B, UniProt Q69422); assay: Inhibition of GBV-B NS3 protease
Chain of Genome polyprotein (Q69422 941-1564 limits assumed): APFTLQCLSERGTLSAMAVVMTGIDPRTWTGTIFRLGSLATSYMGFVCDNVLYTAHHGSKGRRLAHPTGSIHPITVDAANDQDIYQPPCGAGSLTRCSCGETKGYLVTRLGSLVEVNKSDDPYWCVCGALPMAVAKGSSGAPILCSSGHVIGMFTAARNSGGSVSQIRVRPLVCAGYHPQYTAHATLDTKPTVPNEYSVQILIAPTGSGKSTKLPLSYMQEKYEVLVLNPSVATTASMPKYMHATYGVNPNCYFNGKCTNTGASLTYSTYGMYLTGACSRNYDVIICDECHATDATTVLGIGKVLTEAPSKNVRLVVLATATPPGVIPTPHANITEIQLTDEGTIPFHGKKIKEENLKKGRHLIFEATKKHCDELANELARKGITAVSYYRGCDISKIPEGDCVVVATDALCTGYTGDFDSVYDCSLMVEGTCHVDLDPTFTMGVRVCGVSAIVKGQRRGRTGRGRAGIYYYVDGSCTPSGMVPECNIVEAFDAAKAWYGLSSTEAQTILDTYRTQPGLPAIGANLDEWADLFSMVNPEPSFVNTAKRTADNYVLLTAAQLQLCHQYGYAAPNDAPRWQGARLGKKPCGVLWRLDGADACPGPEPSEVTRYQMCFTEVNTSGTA

EC50 (Hepatitis C virus): 0.0045 µM
clearance [1]: 4.3 mL/min/kg
bioavailability [3]: 15.4%
IC50 [11]: 0.006 µM
IC50 (Genome polyprotein): > 25 µM
SMILES: COc1cnc(O[C@@H]2C[C@@H](C(=O)N[C@]3(C(=O)NS(=O)(=O)C4CC4)C[C@H]3C3CC3)N(C(=O)[C@@H](NC(=O)O[C@H](C)C(F)(F)F)C3CCCCC3)C2)c2cc(Cl)ccc12
Activity [2]: -11%
Activity [4]: -3%
Activity [5]: 22%
CC50 [6]: 8 to 14 µM
CC50 [7]: 8 to 14 µM
Activity (Salmonella typhimurium): Non-Toxic
Activity [8]: Non-Toxic
Activity [9]: Non-Toxic
Activity [10]: Non-Toxic
